Measurements reported in ChEMBL document CHEMBL1201862, “PubChem BioAssay data set” (2004).
Calls of active or inactive are those of the source.

Legend:
[1] = target: T1, Epstein-Barr nuclear antigen 1 (Epstein-Barr virus (strain B95-8) (HHV-4) (Human herpesvirus 4), UniProt P03211); assay: inhibition of EBV nuclear antigen 1 DNA binding – biochemical, fluorescence polarization, 1536-well, dose response (AID 2381); set-up: species or system human gammaherpesvirus 4;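 note: fluorescence polarization of a Cy5 DNA probe bound by EBNA-1 protein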
T1 sequence (P03211 whole entry): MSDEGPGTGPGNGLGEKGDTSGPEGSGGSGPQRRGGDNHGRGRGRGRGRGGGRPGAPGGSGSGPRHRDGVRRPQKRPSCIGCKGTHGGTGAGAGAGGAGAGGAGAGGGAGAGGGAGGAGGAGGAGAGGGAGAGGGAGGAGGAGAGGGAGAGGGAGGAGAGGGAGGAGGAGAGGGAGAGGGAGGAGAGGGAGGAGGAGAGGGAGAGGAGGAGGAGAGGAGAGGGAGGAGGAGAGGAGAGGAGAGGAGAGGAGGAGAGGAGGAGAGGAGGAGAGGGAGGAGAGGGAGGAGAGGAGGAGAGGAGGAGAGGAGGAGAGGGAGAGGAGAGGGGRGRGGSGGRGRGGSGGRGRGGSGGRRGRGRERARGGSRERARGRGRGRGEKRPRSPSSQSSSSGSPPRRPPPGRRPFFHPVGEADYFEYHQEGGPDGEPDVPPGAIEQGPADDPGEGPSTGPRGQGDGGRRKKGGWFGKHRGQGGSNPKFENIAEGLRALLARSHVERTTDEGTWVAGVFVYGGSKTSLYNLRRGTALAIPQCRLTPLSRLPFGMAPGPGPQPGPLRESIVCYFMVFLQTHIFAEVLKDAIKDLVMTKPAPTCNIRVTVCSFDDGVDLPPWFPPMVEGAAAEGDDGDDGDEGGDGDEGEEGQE

[2] = target: T2, Lytic switch protein BZLF1 (Epstein-Barr virus (strain B95-8) (HHV-4) (Human herpesvirus 4), UniProt P03206); assay: inhibition of BZLF1 ZTA DNA binding – biochemical, fluorescence polarization, Epstein-Barr virus, 1536-well, counter-screen for EBNA-1 inhibitor project, dose response (AID 2377); set-up: species or system human gammaherpesvirus 4;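 note: fluorescence polarization of Cy5-labelled ZRE DNA probe bound by purified Zta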
T2 sequence (P03206 whole entry): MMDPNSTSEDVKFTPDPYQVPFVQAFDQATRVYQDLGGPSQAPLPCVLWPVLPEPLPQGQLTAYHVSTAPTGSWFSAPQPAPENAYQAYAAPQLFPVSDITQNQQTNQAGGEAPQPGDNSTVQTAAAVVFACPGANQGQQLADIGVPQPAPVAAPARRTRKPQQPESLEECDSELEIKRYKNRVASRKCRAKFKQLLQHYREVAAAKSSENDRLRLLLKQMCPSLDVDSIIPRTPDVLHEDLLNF

[3] = viability inhibitors of stage V gametocytes – luminescence, dose response (AID 1117278); type: functional, cell-based;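 note: gametocytes exposed to compound for 24 hours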
[4] = viability loss in human Jurkat cells – cell-based, luminescence, cytotoxicity control for P. falciparum gametocyte viability project, dose response (AID 1117277); type: functional;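 note: potency reflects loss of cellular ATP meaning fewer viable cells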
[5] = cells; type: functional, cell-based
[6] = cells; type: functional, cell-based; remark: listed apart in the source
[7] = target: T3, Mannose-6-phosphate isomerase (Homo sapiens, UniProt P34949); assay: MPI enzyme activity inhibition – biochemical, fluorescence intensity, coupled assay, primary screen (AID 1209)
T3 sequence (P34949 whole entry): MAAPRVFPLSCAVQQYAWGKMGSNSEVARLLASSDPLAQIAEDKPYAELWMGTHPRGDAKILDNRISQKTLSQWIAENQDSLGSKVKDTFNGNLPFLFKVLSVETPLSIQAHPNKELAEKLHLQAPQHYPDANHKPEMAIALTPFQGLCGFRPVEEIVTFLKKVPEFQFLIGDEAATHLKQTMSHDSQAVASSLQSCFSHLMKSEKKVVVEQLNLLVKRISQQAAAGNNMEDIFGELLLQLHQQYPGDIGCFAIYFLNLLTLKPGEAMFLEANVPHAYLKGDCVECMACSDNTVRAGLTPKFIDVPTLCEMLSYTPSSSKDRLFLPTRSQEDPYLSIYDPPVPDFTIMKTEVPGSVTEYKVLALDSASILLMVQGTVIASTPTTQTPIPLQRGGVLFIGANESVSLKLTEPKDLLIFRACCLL

[8] = target: T4, Leucine aminopeptidase (Plasmodium falciparum 3D7, UniProt Q8IL11); assay: P. falciparum M17LAP inhibitors, primary screen, biochemical, fluorogenic H-Leu-NHMec substrate, 1536-well (AID 1619); type: functional
T4 sequence (Q8IL11 whole entry): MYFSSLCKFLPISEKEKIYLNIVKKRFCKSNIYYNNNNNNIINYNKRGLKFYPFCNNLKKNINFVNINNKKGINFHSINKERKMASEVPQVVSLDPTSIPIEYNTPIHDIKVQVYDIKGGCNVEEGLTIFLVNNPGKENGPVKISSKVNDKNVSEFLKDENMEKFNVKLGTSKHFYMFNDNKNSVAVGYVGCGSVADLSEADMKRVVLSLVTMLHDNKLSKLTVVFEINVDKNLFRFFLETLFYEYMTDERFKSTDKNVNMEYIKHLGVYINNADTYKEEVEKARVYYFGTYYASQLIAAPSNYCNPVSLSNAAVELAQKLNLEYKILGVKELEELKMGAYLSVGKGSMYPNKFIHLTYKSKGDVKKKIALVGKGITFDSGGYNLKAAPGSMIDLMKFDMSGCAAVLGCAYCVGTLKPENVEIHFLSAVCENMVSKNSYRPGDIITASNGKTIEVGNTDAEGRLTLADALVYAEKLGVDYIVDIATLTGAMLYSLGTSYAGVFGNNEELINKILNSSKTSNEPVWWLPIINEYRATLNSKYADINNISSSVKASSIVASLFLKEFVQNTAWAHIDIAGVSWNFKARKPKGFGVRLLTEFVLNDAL

[9] = target: Ion channel NompC (Danio rerio, UniProt Q7T1G6); assay: Fluorescence counterscreen assay for TRPML3 agonists: dose response cell-based high-throughput screening assay to identify agonists of the transient receptor potential channel N1 (TRPN1). [Related pubchem assays: 1526, 1424, 1448 ]; type: functional
[10] = target: T5, Mucolipin-3 (Homo sapiens, UniProt Q8TDD5); assay: Dose response cell-based high-throughput screening assay for agonists of the transient receptor potential channel ML3 (TRPML3). [Related pubchem assays: 1526, 1424, 1448 ]; type: functional
T5 sequence (Q8TDD5 whole entry): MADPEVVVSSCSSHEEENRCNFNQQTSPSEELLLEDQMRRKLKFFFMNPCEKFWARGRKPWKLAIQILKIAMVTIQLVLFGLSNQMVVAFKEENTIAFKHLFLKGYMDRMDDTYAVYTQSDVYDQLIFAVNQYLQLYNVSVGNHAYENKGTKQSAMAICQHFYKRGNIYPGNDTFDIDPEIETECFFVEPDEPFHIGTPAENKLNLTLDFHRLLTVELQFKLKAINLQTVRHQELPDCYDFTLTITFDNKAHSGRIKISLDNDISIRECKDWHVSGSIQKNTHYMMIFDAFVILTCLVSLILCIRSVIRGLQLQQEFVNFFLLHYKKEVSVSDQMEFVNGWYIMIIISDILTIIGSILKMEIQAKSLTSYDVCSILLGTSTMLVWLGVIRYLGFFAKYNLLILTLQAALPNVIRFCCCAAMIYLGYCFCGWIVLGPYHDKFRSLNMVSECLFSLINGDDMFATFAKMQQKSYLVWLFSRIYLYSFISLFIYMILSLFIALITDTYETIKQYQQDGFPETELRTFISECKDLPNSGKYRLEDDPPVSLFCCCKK

[11] = target: T3, Mannose-6-phosphate isomerase; assay: MPI inhibition at elevated mannose 6-phosphate – biochemical, fluorescence intensity, high mannose 6-phosphate, primary screen (AID 1220)
[12] = viability loss of HPDE-C7K cells – cell-based, fluorescence, HTS, primary screen (AID 431); type: functional; conditions: Homo sapiens
[13] = HPDE-C7 pancreatic duct cell viability loss – fluorescence, HTS (AID 430); type: functional, cell-based; conditions: Homo sapiens

Chain of Ion channel NompC (Q7T1G6 whole entry): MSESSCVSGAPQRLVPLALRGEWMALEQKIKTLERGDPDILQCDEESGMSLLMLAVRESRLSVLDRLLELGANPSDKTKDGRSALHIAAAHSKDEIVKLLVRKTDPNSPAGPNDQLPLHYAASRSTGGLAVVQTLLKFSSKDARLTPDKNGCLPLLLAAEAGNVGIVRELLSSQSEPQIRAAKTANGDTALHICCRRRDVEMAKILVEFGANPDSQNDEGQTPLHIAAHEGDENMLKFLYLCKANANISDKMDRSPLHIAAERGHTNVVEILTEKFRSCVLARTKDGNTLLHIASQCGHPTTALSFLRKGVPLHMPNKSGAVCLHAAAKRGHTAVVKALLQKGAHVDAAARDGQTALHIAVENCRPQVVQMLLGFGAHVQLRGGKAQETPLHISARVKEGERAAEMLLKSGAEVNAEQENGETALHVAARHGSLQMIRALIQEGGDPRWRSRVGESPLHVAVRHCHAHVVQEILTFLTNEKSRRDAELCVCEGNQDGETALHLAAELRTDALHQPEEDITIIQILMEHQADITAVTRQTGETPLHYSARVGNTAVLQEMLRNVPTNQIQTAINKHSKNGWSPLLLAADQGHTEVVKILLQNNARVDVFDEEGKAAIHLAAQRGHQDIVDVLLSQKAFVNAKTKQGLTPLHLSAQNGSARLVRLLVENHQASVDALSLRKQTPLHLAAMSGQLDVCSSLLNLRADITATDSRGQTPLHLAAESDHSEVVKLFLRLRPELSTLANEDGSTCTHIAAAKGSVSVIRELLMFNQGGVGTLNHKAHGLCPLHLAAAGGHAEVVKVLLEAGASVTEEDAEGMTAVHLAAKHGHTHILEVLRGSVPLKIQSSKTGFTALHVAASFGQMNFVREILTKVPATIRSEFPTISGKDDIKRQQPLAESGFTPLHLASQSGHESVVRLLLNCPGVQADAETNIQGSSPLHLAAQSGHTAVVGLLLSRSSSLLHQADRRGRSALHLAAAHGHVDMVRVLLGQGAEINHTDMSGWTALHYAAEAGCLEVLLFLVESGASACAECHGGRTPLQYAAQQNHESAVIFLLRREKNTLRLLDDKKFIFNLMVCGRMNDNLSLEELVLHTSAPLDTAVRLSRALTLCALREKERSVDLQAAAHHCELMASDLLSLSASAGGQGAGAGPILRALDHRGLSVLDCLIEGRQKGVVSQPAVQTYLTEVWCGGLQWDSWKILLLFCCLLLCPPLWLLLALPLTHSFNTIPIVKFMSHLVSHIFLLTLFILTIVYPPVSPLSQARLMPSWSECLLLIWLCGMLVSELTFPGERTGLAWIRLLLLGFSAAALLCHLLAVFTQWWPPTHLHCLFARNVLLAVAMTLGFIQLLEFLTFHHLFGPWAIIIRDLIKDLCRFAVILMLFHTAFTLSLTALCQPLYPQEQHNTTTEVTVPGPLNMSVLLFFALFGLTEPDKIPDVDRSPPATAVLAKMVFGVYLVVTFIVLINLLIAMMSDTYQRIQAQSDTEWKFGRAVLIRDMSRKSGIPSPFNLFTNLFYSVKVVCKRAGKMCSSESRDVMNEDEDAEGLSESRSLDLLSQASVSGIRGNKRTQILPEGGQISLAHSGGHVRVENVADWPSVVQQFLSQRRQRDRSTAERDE

For `NC(=O)c1cc(-c2ccccc2)sc1NC(=O)Cc1ccc(S(=O)(=O)N2CCOCC2)s1`, the IC50 [1] was > 5.47 µM (active) and the IC50 [2] was > 111 µM (not active).
For `CC(C)CN1CCN(Cc2nc(C(C)C)cs2)CC1CCO` (centres undefined), the IC50 [3] was > 109 µM (inactive) and the IC50 [4] was > 83.3 µM (inactive).
With `c1ccc(CSc2nnc(-c3ccco3)o2)cc1` the EC50 [5] was > 350 µM (not active) and the EC50 [6] was > 350 µM (not active).
With `Cc1c(NC(=O)CSc2ccccc2F)c(=O)n(-c2ccccc2)n1C` the IC50 [7] was > 50 µM (not active).
With `Cc1nc(NS(=O)(=O)c2ccccc2)sc1C(=O)NN` the IC50 [8] was 114 µM (active).
In the case of `Cc1ccc(NC(=O)CCn2c(=S)oc3ccccc32)cc1`, the IC50 [1] is reported as 14.2 µM (not active) and the IC50 [2] is reported as > 111 µM (not active).
In the case of `CC(C)CC1NC(=O)N(Cc2cc(=O)n3ccsc3n2)C1=O` (centres undefined), the EC50 [5] is reported as > 350 µM (not active) and the EC50 [6] is reported as > 350 µM (not active).
With `Cc1cccc(-c2noc(CN(C(C)C)S(=O)(=O)c3ccc(F)cc3)n2)c1` the EC50 [9] was > 29.9 µM (not active) and the EC50 [10] was 1.77 µM (active).
In the case of `N#Cc1c(NCCCO)nc(NCc2ccccc2)c2c1CCN(Cc1ccccc1)C2`, the IC50 [11] is reported as > 50 µM (not active), the EC50 [12] is reported as 11.9 µM (active) and the EC50 [13] is reported as 19.8 µM (active).
For `N#Cc1c(N)n(-c2ccc(O)cc2)c2nc3ccccc3nc12`, the IC50 [3] was > 109 µM (inactive) and the IC50 [4] was > 83.4 µM (inactive).
